For one experiment, the system named is ERK. Kind of experiment: ERK activation in GPCR-transfected NIH3T3 cells (Western blot, activated ERK antibody). The experiment is classed as cell-based. The following applies: 10 μM; FIG. 3. An excerpt:
FIG. 3: Phosphorylation of endogenous Net.

A further experiment has as its system Net. The following applies: inhibitor 10 μM for 30 min; FIG. 3 lanes 3, 4. Here is the method:
NIH3T3 cells were transfected as described above with the control vector for GPCR (pCEFL) or the vector for GPCR ([…]). 14 hours later, cells were washed and left in the growth medium for 2.5 hours. The cells were then treated with SB 203580 (10 μM) (Alexis Corp.) or U0126 (10 μM) (Promega) for 30 min. After 6 hours, extracts were analysed by SDS-PAGE and Western-blotting with antibodies against phospho-serine 365 Net (antibody 2F3, Ducret et al. (Oncogene, in press) or activated ERK (Promega).
Phosphorylation of endogenous Net was followed with a phospho-specific antibody that recognises phospho-serine 365, which is important for phosphorylation induced activation of Net by ERK and p38 signalling cascades.
NIH3T3 cells were transfected as described above with the control vector for GPCR (pCEFL) or the vector for GPCR (pCEFL-GPCR). 14 hours later, cells were washed and left in the growth medium for 2.5 hours. The cells were then treated with SB 203580 (10 μM) (Alexis Corp.) or U0126 (10 μM) (Promega) for 30 min. After 6 hours, extracts were analysed by SDS-PAGE and Western-blotting with antibodies against phospho-serine 365 Net [Antibody 2F3 , Giovane et al. (Genomics (1995) 29:769-72)] or activated ERK (Promega).

The next experiment addresses NES binding to CRM1 (Homo sapiens, UniProt O14980). Conditions: cited from earlier work.
For a further experiment, the system named is HUVEC cells. Kind of experiment: Microtubule formation by HUVEC cells on Matrigel induced by conditioned media from transfected NIH3T3 cells. It counts as cell-based. The following applies: 10 ng/ml recombinant human VEGF added to conditioned medium; FIG. 1d, 1f. Here is the method: FIG. 1: Microtubule formation by HUVEC cells on Matrigel induced by conditioned media from differentially transfected NIH3T3 cells. NIH3T3 cells were transfected by pCEFL-GPCR alone (FIG. 1a); pCEFL-GPCR with p601D-antisense-Net (FIG. 1c) or p601D-transdominant-Net (FIG. e). Before incubation with HUVEC cells, some of the conditioned media were incubated with either: (b) 0.2 μg/ml of anti-mouse-VEGF polyclonal antibody (total goat IgG; R&D SYSTEMS) or with (d and f) 10 ng/ml of recombinant human VEGF-A (R&D). The plates were observed after 24 hours (phase contrast, original magnification, ×40).
a. NIH3T3 cells (C11) were transfected by the calcium phosphate technique with pCEFL-KSHVGPCR (mouse EF12 promoter) and the AntiNet expression vector or the corresponding empty vector (p601D: Beddinton et al.1989,Development 106:37-46). 16 hours after applying the precipitate, the cells were washed twice with DMEM, incubated in DMEM with 0,05% FCS for 48 hours. The medium was collected and either tested immediately or stored at −80° C.
b. HUVEC cells (passage 4-6) were grown in DMEM/F12K containing 10% FCS, Heparine (50 ng/mnl), ECGF(Endothelial Cell Growth Factor, Sigma, 50 ng/ml) and Glutamine (2 mM).
c. The wells of 24-multiwell plates were coated with […] of Growth Factor Reduced MATRIGEL Matrix (Collaborative Biomedical Products) at 4° C. and incubated for 30 min at 37° C.
d. […]

Chain of NES binding to CRM1 (O14980 whole entry): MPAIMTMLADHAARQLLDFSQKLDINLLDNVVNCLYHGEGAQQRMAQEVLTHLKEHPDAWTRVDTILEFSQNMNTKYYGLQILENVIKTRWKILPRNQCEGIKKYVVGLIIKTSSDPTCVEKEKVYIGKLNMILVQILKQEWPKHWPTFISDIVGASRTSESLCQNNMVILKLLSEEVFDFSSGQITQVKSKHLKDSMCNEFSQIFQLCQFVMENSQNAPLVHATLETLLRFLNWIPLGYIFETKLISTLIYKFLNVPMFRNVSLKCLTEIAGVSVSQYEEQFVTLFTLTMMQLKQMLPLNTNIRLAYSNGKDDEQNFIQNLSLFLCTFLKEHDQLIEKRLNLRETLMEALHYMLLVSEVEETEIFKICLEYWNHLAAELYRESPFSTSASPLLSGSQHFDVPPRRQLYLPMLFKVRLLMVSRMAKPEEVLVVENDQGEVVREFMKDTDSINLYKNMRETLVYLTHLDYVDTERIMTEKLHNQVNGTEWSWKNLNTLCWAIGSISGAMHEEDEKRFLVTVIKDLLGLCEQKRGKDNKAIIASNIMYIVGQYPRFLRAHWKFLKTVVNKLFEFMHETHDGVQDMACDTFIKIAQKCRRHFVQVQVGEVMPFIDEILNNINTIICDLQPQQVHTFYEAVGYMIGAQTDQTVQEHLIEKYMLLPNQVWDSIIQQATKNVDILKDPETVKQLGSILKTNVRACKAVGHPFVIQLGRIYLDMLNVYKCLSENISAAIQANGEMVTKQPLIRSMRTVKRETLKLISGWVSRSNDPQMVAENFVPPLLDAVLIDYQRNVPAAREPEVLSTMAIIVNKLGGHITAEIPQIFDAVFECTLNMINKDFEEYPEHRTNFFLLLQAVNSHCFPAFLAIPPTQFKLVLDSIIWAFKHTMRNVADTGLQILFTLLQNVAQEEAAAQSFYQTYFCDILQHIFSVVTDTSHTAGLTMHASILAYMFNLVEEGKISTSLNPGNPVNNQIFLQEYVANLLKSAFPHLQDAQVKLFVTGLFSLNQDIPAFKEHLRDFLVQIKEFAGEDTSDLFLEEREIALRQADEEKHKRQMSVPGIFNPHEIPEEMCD

With `C[S+]([O-])c1ccc(-c2nc(-c3ccncc3)c(-c3ccc(F)cc3)[nH]2)cc1` (centres unmarked) [SB 203580, 4-[5-(4-fluorophenyl)4-4-(pyridinyl)-1H-imidazol-2-yl]phenyl methyl sulfoxide], in the experiment with ERK, the ERK activation result is reported as “did not inhibit ERK activation”. The “GPCR induced phosphorylation of Net (phospho-serine 365)” value in the experiment with Net was “induction was dependent on both the p38 and ERK pathways”.
With `N#CC(=C(N)Sc1ccccc1N)C(C#N)=C(N)Sc1ccccc1N` [U 0126, 1,4-diamino-2,3-dicyano-1,4 bis[2-aminophenylthio]butadiene], the “GPCR induced phosphorylation of Net (phospho-serine 365)” value in the experiment with Net was “induction was dependent on both the p38 and ERK pathways”.
As to `CCC(=C/[C@H](C)C/C=C/C(C)=C/[C@@H](C)C(=O)[C@@H](C)[C@H](O)[C@@H](C)C/C(C)=C/C(=O)O)/C=C/[C@@H]1OC(=O)C=C[C@@H]1C` [leptomycin B], on NES binding to CRM1, the “active nuclear export of the Net protein induced by the JNK pathway” value is reported as “inhibited”.

B1: VEGFa: recombinant human VEGF-A (R&D) (protein)
chain: APTTEGEQKSHEVIKFMDVYQRSYCRPIETLVDIFQEYPDEIEYIFKPSCVPLMRCAGCCNDEALECVPTSESNITMQIMRIKPHQSQHIGEMSFLQHSRCECRPKKDRTKPENHCEPCSERRKHLFVQDPQTCKCSCKNTDSRCKARQLELNERTCRCDKPRR
On to B1, for which, in the experiment with HUVEC cells, the “microtubule inducing activity of conditioned medium from Net down-regulated GPCR cells after adding VEGFa” value was “restored microtubule inducing activity”.

The record behind these values is patent publication US7537887B2, “Net, a transcription factor of the TCF family, as regulator of angiogenic factor expression” (Aventis Pharma S.A., priority 2000, dated 2009).
